Measured values taken from US20190292155A1, “THERAPEUTIC INHIBITORY COMPOUNDS” (LifeSci Pharmaceuticals, Inc., priority 2016, published 2019).

Target: T1, human complement factor D (Homo sapiens, UniProt P00746)
T1 construct: purchased R&D Systems 1824-SE
Test: In vitro enzyme inhibition of human complement factor D (Z-Lys-SBzl/DTNB, A405)
Assay type: biochemical
Conditions: biochemical assay, substrate Z-Lys-SBzl; read-out: CFD IC50
In short: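 Buffer 50 mM Tris/HCl pH 7.5, 1 M NaCl, 0.5% final DMSO; compounds pre-incubated with enzyme 5 min at room temperature, then Z-Lys-SBzl with DTNB added (each diluted to 200 μM before addition).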

T1 sequence (P00746 26-253): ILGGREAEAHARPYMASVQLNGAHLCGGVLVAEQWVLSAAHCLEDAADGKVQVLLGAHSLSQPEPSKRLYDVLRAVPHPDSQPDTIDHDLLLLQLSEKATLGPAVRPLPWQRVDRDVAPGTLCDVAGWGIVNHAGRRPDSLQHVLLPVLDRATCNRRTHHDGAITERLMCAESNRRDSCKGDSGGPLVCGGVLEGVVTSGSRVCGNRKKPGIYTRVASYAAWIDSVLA

Structure (SMILES) | IC50 [nM]
NC(=O)c1nn(CC(=O)N(CC(=O)NCc2cccc(Cl)c2C2CC2)C2CC2)c2ccccc12 [Example 131, 1-(2-((2-((3-chloro-2-cyclopropylbenzyl)amino)-2-oxoethyl)(cyclopropyl)amino)-2-oxoethyl)-1H-indazole-3-carboxamide] | > 10000
NC(=O)c1nn(CC(=O)N(CC(=O)NCc2cccc(Cl)c2F)C2CC2)c2cc(C(F)(F)F)ccc12 [Example 94, 1-(2-((2-((3-chloro-2-fluorobenzyl)amino)-2-oxoethyl)(cyclopropyl)amino)-2-oxoethyl)-6-(trifluoromethyl)-1H-indazole-3-carboxamide] | 100 to 1000
NCCN(CC(=O)Nc1cccc(Cl)n1)C(=O)Cc1nn(C(N)=O)c2ccccc12 [Example 18, 3-(2-((2-aminoethyl)(2-((6-chloropyridin-2-yl)amino)-2-oxoethyl)amino)-2-oxoethyl)-1H-indazole-1-carboxamide] | 1000 to 10000
NC(=O)c1nn(CC(=O)N(CC(=O)NCc2cccc(Cl)c2F)C(CCO)C2CC2)c2ccccc12 (centres unmarked) [Example 73, 1-(2-((2-((3-chloro-2-fluorobenzyl)amino)-2-oxoethyl)(1-cyclopropyl-3-hydroxypropyl)amino)-2-oxoethyl)-1H-indazole-3-carboxamide] | 1000 to 10000
NC(=O)c1nn(CC(=O)N(CC(=O)NCc2cccc(Cl)c2F)C2CC2)c2c(C(F)(F)F)cccc12 [Example 111, 1-(2-((2-((3-chloro-2-fluorobenzyl)amino)-2-oxoethyl)(cyclopropyl)amino)-2-oxoethyl)-7-(trifluoromethyl)-1H-indazole-3-carboxamide] | < 100
C[C@H](C(=O)NCc1cccc(Cl)c1F)N(C(=O)Cn1nc(C(N)=O)c2ccccc21)C1CC1 [Example 38, (R)-1-(2-((1-((3-chloro-2-fluorobenzyl)amino)-1-oxopropan-2-yl)(cyclopropyl)amino)-2-oxoethyl)-1H-indazole-3-carboxamide] | 1000 to 10000
Cc1c(Cl)cccc1CNC(=O)CN(C(=O)Cn1nc(C(N)=O)c2ccccc21)C1CC1 [Example 134, 1-(2-((2-((3-chloro-2-methylbenzyl)amino)-2-oxoethyl)(cyclopropyl)amino)-2-oxoethyl)-1H-indazole-3-carboxamide] | 1000 to 10000
Cc1cc(Cl)cc(CNC(=O)CN(C(=O)Cn2nc(C(N)=O)c3ccccc32)C2CC2)c1 [Example 129, 1-(2-((2-((3-chloro-5-methylbenzyl)amino)-2-oxoethyl)(cyclopropyl)amino)-2-oxoethyl)-1H-indazole-3-carboxamide] | 1000 to 10000
Cc1cccc(CNC(=O)CN(C(=O)Cn2nc(C(N)=O)c3ccccc32)C2CC2)c1F [Example 128, 1-(2-(cyclopropyl(2-((2-fluoro-3-methylbenzyl)amino)-2-oxoethyl)amino)-2-oxoethyl)-1H-indazole-3-carboxamide] | 100 to 1000
NC(=O)c1nn(CC(=O)N(CC(=O)Nc2cccc(Cl)c2F)C2CC2)c2ccccc12 [Example 7, 1-(2-((2-((3-chloro-2-fluorophenyl)amino)-2-oxoethyl)(cyclopropyl)amino)-2-oxoethyl)-1H-indazole-3-carboxamide] | 100 to 1000
NC(=O)CC(C1CC1)N(CC(=O)NCc1cccc(Cl)c1F)C(=O)Cn1nc(C(N)=O)c2ccccc21 (centres unmarked) [Example 75, 1-(2-((3-amino-1-cyclopropyl-3-oxopropyl)(2-((3-chloro-2-fluorobenzyl)amino)-2-oxoethyl)amino)-2-oxoethyl)-1H-indazole-3-carboxamide] | 1000 to 10000
C[C@@H](C(=O)Nc1cccc(Cl)c1F)N(C)C(=O)Cn1nc(C(N)=O)c2ccccc21 [Example 2, (S)-1-(2-((1-((3-chloro-2-fluorophenyl)amino)-1-oxopropan-2-yl)(methyl)amino)-2-oxoethyl)-1H-indazole-3-carboxamide] | 1000 to 10000
NC(=O)c1nn(CC(=O)N(CC(=O)NCc2ccc(CO)c(Cl)c2F)C2CC2)c2ccccc12 [Example 99, 1-(2-((2-((3-chloro-2-fluoro-4-(hydroxymethyl)benzyl)amino)-2-oxoethyl)(cyclopropyl)amino)-2-oxoethyl)-1H-indazole-3-carboxamide] | > 10000
COCC(C)N(CC(=O)NCc1cccc(Cl)c1F)C(=O)Cn1nc(C(N)=O)c2ccccc21 (centres unmarked) [Example 68, 1-(2-((2-((3-chloro-2-fluorobenzyl)amino)-2-oxoethyl)(1-methoxypropan-2-yl)amino)-2-oxoethyl)-1H-indazole-3-carboxamide] | 100 to 1000
CC(O)c1nn(CC(=O)N(CC(=O)NCc2cccc(Cl)c2F)C2CC2)c2ccccc12 (centres unmarked) [Example 49, N-(2-((3-chloro-2-fluorobenzyl)amino)-2-oxoethyl)-N-cyclopropyl-2-(3-(1-hydroxyethyl)-1H-indazol-1-yl)acetamide] | 1000 to 10000
NC(=O)c1nn(CC(=O)N(CC(=O)NCc2cccc(Cl)c2)C2CC2)c2ccccc12 [Example 112, 1-(2-((2-((3-chlorobenzyl)amino)-2-oxoethyl)(cyclopropyl)amino)-2-oxoethyl)-1H-indazole-3-carboxamide] | 100 to 1000

Structure (SMILES) | IC50 [nM]
NC(=O)c1nn(CC(=O)N(CCO)CC(=O)Nc2cccc(Cl)n2)c2ccccc12 [Example 13, 1-(2-((2-((6-chloropyridin-2-yl)amino)-2-oxoethyl)(2-hydroxyethyl)amino)-2-oxoethyl)-1H-indazole-3-carboxamide] | 1000 to 10000
NC(=O)c1nn(CC(=O)N(CC(=O)NCc2cccc(Cl)c2F)C2CCNC2)c2ccccc12 (centres unmarked) [Example 37, 1-(2-((2-((3-chloro-2-fluorobenzyl)amino)-2-oxoethyl)(pyrrolidin-3-yl)amino)-2-oxoethyl)-1H-indazole-3-carboxamide] | 1000 to 10000
C[C@@H](C(=O)NCc1cccc(Cl)c1F)N(C(=O)Cn1nc(C(N)=O)c2ccccc21)C1CC1 [Example 39, (S)-1-(2-((1-((3-chloro-2-fluorobenzyl)amino)-1-oxopropan-2-yl)(cyclopropyl)amino)-2-oxoethyl)-1H-indazole-3-carboxamide] | > 10000
COC(=O)C(C)N(CC(=O)NCc1cccc(Cl)c1F)C(=O)Cn1nc(C(N)=O)c2ccccc21 (centres unmarked) [Example 59, methyl 2-(2-(3-carbamoyl-1H-indazol-1-yl)-N-(2-((3-chloro-2-fluorobenzyl)amino)-2-oxoethyl)acetamido)propanoate] | 1000 to 10000
CC1(C)CC(O)CC(NC(=O)CN(C(=O)Cn2nc(C(N)=O)c3ccccc32)C2CC2)C1 (centres unmarked) [Example 9, 1-(2-(cyclopropyl(2-((5-hydroxy-3,3-dimethylcyclohexyl)amino)-2-oxoethyl)amino)-2-oxoethyl)-1H-indazole-3-carboxamide] | 1000 to 10000
NC(=O)c1nn(CC(=O)N(CC(=O)NCc2cccc(C(F)(F)F)c2F)C2CC2)c2ccccc12 [Example 136, 1-(2-(cyclopropyl(2-((2-fluoro-3-(trifluoromethyl)benzyl)amino)-2-oxoethyl)amino)-2-oxoethyl)-1H-indazole-3-carboxamide] | 1000 to 10000
NC(=O)c1nn(CC(=O)N(CC(=O)NCc2cc(Cl)cc3ccoc23)C2CC2)c2ccccc12 [Example 110, 1-(2-((2-(((5-chlorobenzofuran-7-yl)methyl)amino)-2-oxoethyl)(cyclopropyl)amino)-2-oxoethyl)-1H-indazole-3-carboxamide] | 100 to 1000
NC(=O)c1nn(CC(=O)N(CC(=O)NCc2cccc(Cl)c2Cl)C2CC2)c2ccccc12 [Example 106, 1-(2-(cyclopropyl(2-((2,3-dichlorobenzyl)amino)-2-oxoethyl)amino)-2-oxoethyl)-1H-indazole-3-carboxamide] | 100 to 1000
NC(=O)c1nn(CC(=O)N(CC(=O)NCc2cccc(Cl)c2F)C2CC2)c2c(F)cccc12 [Example 88, 1-(2-((2-((3-chloro-2-fluorobenzyl)amino)-2-oxoethyl)(cyclopropyl)amino)-2-oxoethyl)-7-fluoro-1H-indazole-3-carboxamide] | 100 to 1000
NC(=O)c1nn(CC(=O)N(CC(=O)NCc2cccc(N)c2F)C2CC2)c2ccccc12 [Example 118, 1-(2-((2-((3-amino-2-fluorobenzyl)amino)-2-oxoethyl)(cyclopropyl)amino)-2-oxoethyl)-1H-indazole-3-carboxamide] | 1000 to 10000
NC(=O)c1nn(CC(=O)N(CC(=O)Nc2cccc(Cl)n2)C2CCNC2)c2ccccc12 (centres unmarked) [Example 26, 1-(2-((2-((6-chloropyridin-2-yl)amino)-2-oxoethyl)(pyrrolidin-3-yl)amino)-2-oxoethyl)-1H-indazole-3-carboxamide] | 1000 to 10000
NC(=O)c1nn(CC(=O)N(CC(=O)Nc2cccc(Cl)n2)C2CNC2)c2ccccc12 [Example 22, 1-(2-(azetidin-3-yl(2-((6-chloropyridin-2-yl)amino)-2-oxoethyl)amino)-2-oxoethyl)-1H-indazole-3-carboxamide] | 1000 to 10000
NC(=O)c1nn(CC(=O)N(CC(=O)NCc2ccc(N)cc2F)C2CC2)c2ccccc12 [Example 121, 1-(2-((2-((4-amino-2-fluorobenzyl)amino)-2-oxoethyl)(cyclopropyl)amino)-2-oxoethyl)-1H-indazole-3-carboxamide] | 1000 to 10000
COc1cccc(CNC(=O)CN(C(=O)Cn2nc(C(N)=O)c3ccccc32)C2CC2)c1F [Example 122, 1-(2-(cyclopropyl(2-((2-fluoro-3-methoxybenzyl)amino)-2-oxoethyl)amino)-2-oxoethyl)-1H-indazole-3-carboxamide] | 1000 to 10000
CCN(CC(=O)Nc1cccc(Cl)n1)C(=O)Cn1nc(C(N)=O)c2ccccc21 [Example 15, 1-(2-((2-((6-chloropyridin-2-yl)amino)-2-oxoethyl)(ethyl)amino)-2-oxoethyl)-1H-indazole-3-carboxamide] | 100 to 1000
NC(=O)c1nc(CC(=O)N(CC(=O)NCc2cccc(Cl)c2F)C2CC2)c2ccccn12 [Example 138, 1-(2-((2-((3-chloro-2-fluorobenzyl)amino)-2-oxoethyl)(cyclopropyl)amino)-2-oxoethyl)imidazo[1,5-a]pyridine-3-carboxamide] | 100 to 1000
